Results: patent US8846669B2, “Oxazolidinone derivative and medical composition containing same” (Legochem Biosciences, Inc., priority 2011, dated 2014)
Converted amounts (≈) assume the structure as drawn.

What was measured:
Test in all cases: In vitro antibacterial activity, broth microdilution MIC90
Format in all cases: cell-based
Moraxella catarrhalis = test system: Moraxella catarrhalis
Procedure: (§1) MIC90 was measured by broth microdilution method based on CLSI standards [reference: Clinical and Laboratory Standards Institute Document. (2000) Methods for Dilution Antimicrobial Susceptibility Test for Bacteria that Grow Aerobically-Fifth Edition: M7-A5. CLSI, Villanova, Pa.].
(§2) Activities of 12 strains including Staphylococcus aureus, Methicillin Resistant Staphylococcus aureus, Staphylococcus epidermidis, Methicillin Resistant Staphylococcus epidermidis, Enterococcus faecalis, Vancomycin Resistant Enterococcus faecalis, Linezolid and Vancomycin Resistant Enterococcus faecalis, Enterococcus faecium, Vancomycin Resistant Enterococcus faecium, Linezolid and Vancomycin Resistant Enterococcus faecium, and Moraxella catarrhalis, were measured, and results are shown in Table 1 below.
(§3) The final concentration of test material in the antibacterial test was from 0.063 μg/mL (minimum) to 128 μg/mL (maximum), and the final concentration of DMSO used as an excipient was 2.5% (V/V). Linezolid represented by Formula B below (manufactured by Pfizer) was used as a control and bacterial activity thereof was compared with those of the test materials.

[1] = test system: Vancomycin Resistant Enterococcus faecium
Procedure: as §1, §2, §3

Staphylococcus aureus = test system: Staphylococcus aureus
Procedure: as §1, §2, §3

[2] = test system: Methicillin Resistant Staphylococcus epidermidis
Procedure: as §1, §2, §3

Enterococcus faecium = test system: Enterococcus faecium
Procedure: as §1, §2, §3

[3] = test system: Staphylococcus epidermidis
Procedure: as §1, §2, §3

[4] = test system: Linezolid and Vancomycin Resistant Enterococcus faecalis
Procedure: as §1, §2, §3

[5] = test system: Methicillin Resistant Staphylococcus aureus
Procedure: as §1, §2, §3

[6] = test system: Vancomycin Resistant Enterococcus faecalis
Procedure: as §1, §2, §3

[7] = test system: Linezolid and Vancomycin Resistant Enterococcus faecium (strain 11)
Procedure: as §1, §2, §3

Enterococcus faecalis = test system: Enterococcus faecalis
Procedure: as §1, §2, §3

[8] = test system: Linezolid and Vancomycin Resistant Enterococcus faecium (strain 10)
Procedure: as §1, §2, §3

## CNC(=O)N1CCN(c2ccc(-c3ccc(N4C[C@H](CNC(C)=O)OC4=O)cc3F)cn2)C=N1 [Compound 16]
Moraxella catarrhalis; Moraxella catarrhalis
  MIC90: 2 µg/mL (≈ 4.26 µM)
[1]; Enterococcus faecium
  MIC90: 0.5 µg/mL (≈ 1.07 µM)
Staphylococcus aureus; Staphylococcus aureus
  MIC90: 0.25 µg/mL (≈ 0.533 µM)
[2]; Staphylococcus epidermidis
  MIC90: 1 µg/mL (≈ 2.13 µM)
Enterococcus faecium; Enterococcus faecium
  MIC90: 0.5 µg/mL (≈ 1.07 µM)
[3]; Staphylococcus epidermidis
  MIC90: 0.25 µg/mL (≈ 0.533 µM)
[4]; Enterococcus faecalis
  MIC90: 1 µg/mL (≈ 2.13 µM)
[5]; Staphylococcus aureus
  MIC90: 1 µg/mL (≈ 2.13 µM)
[6]; Enterococcus faecalis
  MIC90: 0.5 µg/mL (≈ 1.07 µM)
[7]; Enterococcus faecium
  MIC90: 2 µg/mL (≈ 4.26 µM)
Enterococcus faecalis; Enterococcus faecalis
  MIC90: 0.25 µg/mL (≈ 0.533 µM)
[8]; Enterococcus faecium
  MIC90: 2 µg/mL (≈ 4.26 µM)

## O=C1O[C@@H](COc2ccon2)CN1c1ccc(-c2ccc(C3=NOCCN3)nc2)c(F)c1 [Compound 68]
Moraxella catarrhalis; strain 12, M. catarrhalis
  MIC90: >128 µg/mL
[1]; strain 9, E. faecium VanA
  MIC90: 1 µg/mL (≈ 2.28 µM)
Staphylococcus aureus; strain 1, S. aureus
  MIC90: 0.5 µg/mL (≈ 1.14 µM)
[2]; strain 4, S. epidermidis MR
  MIC90: 2 µg/mL (≈ 4.55 µM)
Enterococcus faecium; strain 8, E. faecium
  MIC90: 0.25 µg/mL (≈ 0.569 µM)
[3]; strain 3, S. epidermidis
  MIC90: 1 µg/mL (≈ 2.28 µM)
[4]; strain 7, E. faecalis VanA LR
  MIC90: >128 µg/mL
[5]; strain 2, S. aureus MR
  MIC90: 1 µg/mL (≈ 2.28 µM)
[6]; strain 6, E. faecalis VanA
  MIC90: 2 µg/mL (≈ 4.55 µM)
[7]; strain 11, E. faecium VanA LR
  MIC90: >128 µg/mL
Enterococcus faecalis; strain 5, E. faecalis
  MIC90: 1 µg/mL (≈ 2.28 µM)
[8]; strain 10, E. faecium VanA LR
  MIC90: >128 µg/mL

## O=C(C(O)CO)N1CCN(c2ccc(-c3ccc(N4C[C@H](COc5ccon5)OC4=O)cc3F)cn2)C=N1 (stereo partly drawn) [Compound 50]
Moraxella catarrhalis; strain 12, M. catarrhalis
  MIC90: >128 µg/mL
[1]; strain 9, E. faecium VanA
  MIC90: 2 µg/mL (≈ 3.8 µM)
Staphylococcus aureus; strain 1, S. aureus
  MIC90: 0.5 µg/mL (≈ 0.95 µM)
[2]; strain 4, S. epidermidis MR
  MIC90: 4 µg/mL (≈ 7.6 µM)
Enterococcus faecium; strain 8, E. faecium
  MIC90: 0.5 µg/mL (≈ 0.95 µM)
[3]; strain 3, S. epidermidis
  MIC90: 1 µg/mL (≈ 1.9 µM)
[4]; strain 7, E. faecalis VanA LR
  MIC90: 16 µg/mL (≈ 30.4 µM)
[5]; strain 2, S. aureus MR
  MIC90: 1 µg/mL (≈ 1.9 µM)
[6]; strain 6, E. faecalis VanA
  MIC90: 4 µg/mL (≈ 7.6 µM)
[7]; strain 11, E. faecium VanA LR
  MIC90: 32 µg/mL (≈ 60.8 µM)
Enterococcus faecalis; strain 5, E. faecalis
  MIC90: 2 µg/mL (≈ 3.8 µM)
[8]; strain 10, E. faecium VanA LR
  MIC90: 16 µg/mL (≈ 30.4 µM)

## O=C(C(O)CO)N1CCN(c2ccc(-c3ccc(N4C[C@H](Cn5ccnn5)OC4=O)cc3F)cn2)C=N1 (stereo partly drawn) [Compound 37]
Moraxella catarrhalis; Moraxella catarrhalis
  MIC90: 8 µg/mL (≈ 15.7 µM)
[1]; Enterococcus faecium
  MIC90: 1 µg/mL (≈ 1.96 µM)
Staphylococcus aureus; Staphylococcus aureus
  MIC90: 0.5 µg/mL (≈ 0.979 µM)
[2]; Staphylococcus epidermidis
  MIC90: 2 µg/mL (≈ 3.92 µM)
Enterococcus faecium; Enterococcus faecium
  MIC90: 1 µg/mL (≈ 1.96 µM)
[3]; Staphylococcus epidermidis
  MIC90: 1 µg/mL (≈ 1.96 µM)
[4]; Enterococcus faecalis
  MIC90: 8 µg/mL (≈ 15.7 µM)
[5]; Staphylococcus aureus
  MIC90: 1 µg/mL (≈ 1.96 µM)
[6]; Enterococcus faecalis
  MIC90: 1 µg/mL (≈ 1.96 µM)
[7]; Enterococcus faecium
  MIC90: 8 µg/mL (≈ 15.7 µM)
Enterococcus faecalis; Enterococcus faecalis
  MIC90: 1 µg/mL (≈ 1.96 µM)
[8]; Enterococcus faecium
  MIC90: 8 µg/mL (≈ 15.7 µM)

## CCN1CCN(c2ccc(-c3ccc(N4C[C@H](CO)OC4=O)cc3F)cn2)C=N1 [Compound 29]
Moraxella catarrhalis; Moraxella catarrhalis
  MIC90: 32 µg/mL (≈ 80.1 µM)
[1]; Enterococcus faecium
  MIC90: 8 µg/mL (≈ 20 µM)
Staphylococcus aureus; Staphylococcus aureus
  MIC90: 8 µg/mL (≈ 20 µM)
[2]; Staphylococcus epidermidis
  MIC90: 8 µg/mL (≈ 20 µM)
Enterococcus faecium; Enterococcus faecium
  MIC90: 8 µg/mL (≈ 20 µM)
[3]; Staphylococcus epidermidis
  MIC90: 4 µg/mL (≈ 10 µM)
[4]; Enterococcus faecalis
  MIC90: 64 µg/mL (≈ 160 µM)
[5]; Staphylococcus aureus
  MIC90: 8 µg/mL (≈ 20 µM)
[6]; Enterococcus faecalis
  MIC90: 16 µg/mL (≈ 40.1 µM)
[7]; Enterococcus faecium
  MIC90: 64 µg/mL (≈ 160 µM)
Enterococcus faecalis; Enterococcus faecalis
  MIC90: 16 µg/mL (≈ 40.1 µM)
[8]; Enterococcus faecium
  MIC90: 64 µg/mL (≈ 160 µM)

## CC(=O)NC[C@H]1CN(c2ccc(-c3ccc(N4C=NNCC4)nc3)c(F)c2)C(=O)O1 [Compound 2]
Moraxella catarrhalis; Moraxella catarrhalis
  MIC90: 4 µg/mL (≈ 9.7 µM)
[1]; Enterococcus faecium
  MIC90: 0.5 µg/mL (≈ 1.21 µM)
Staphylococcus aureus; Staphylococcus aureus
  MIC90: 0.5 µg/mL (≈ 1.21 µM)
[2]; Staphylococcus epidermidis
  MIC90: 1 µg/mL (≈ 2.42 µM)
Enterococcus faecium; Enterococcus faecium
  MIC90: 0.5 µg/mL (≈ 1.21 µM)
[3]; Staphylococcus epidermidis
  MIC90: 0.5 µg/mL (≈ 1.21 µM)
[4]; Enterococcus faecalis
  MIC90: 2 µg/mL (≈ 4.85 µM)
[5]; Staphylococcus aureus
  MIC90: 1 µg/mL (≈ 2.42 µM)
[6]; Enterococcus faecalis
  MIC90: 0.5 µg/mL (≈ 1.21 µM)
[7]; Enterococcus faecium
  MIC90: 2 µg/mL (≈ 4.85 µM)
Enterococcus faecalis; Enterococcus faecalis
  MIC90: 0.5 µg/mL (≈ 1.21 µM)
[8]; Enterococcus faecium
  MIC90: 2 µg/mL (≈ 4.85 µM)

## CN1CCN(c2ccc(-c3ccc(N4C[C@H](Cn5ccnn5)OC4=O)cc3F)cn2)C=N1 [Compound 31]
Moraxella catarrhalis; Moraxella catarrhalis
  MIC90: 2 µg/mL (≈ 4.58 µM)
[1]; Enterococcus faecium
  MIC90: 0.25 µg/mL (≈ 0.573 µM)
Staphylococcus aureus; Staphylococcus aureus
  MIC90: 0.25 µg/mL (≈ 0.573 µM)
[2]; Staphylococcus epidermidis
  MIC90: 1 µg/mL (≈ 2.29 µM)
Enterococcus faecium; Enterococcus faecium
  MIC90: 0.25 µg/mL (≈ 0.573 µM)
[3]; Staphylococcus epidermidis
  MIC90: 0.25 µg/mL (≈ 0.573 µM)
[4]; Enterococcus faecalis
  MIC90: 2 µg/mL (≈ 4.58 µM)
[5]; Staphylococcus aureus
  MIC90: 1 µg/mL (≈ 2.29 µM)
[6]; Enterococcus faecalis
  MIC90: 0.5 µg/mL (≈ 1.15 µM)
[7]; Enterococcus faecium
  MIC90: 2 µg/mL (≈ 4.58 µM)
Enterococcus faecalis; Enterococcus faecalis
  MIC90: 0.5 µg/mL (≈ 1.15 µM)
[8]; Enterococcus faecium
  MIC90: 1 µg/mL (≈ 2.29 µM)

## CC(=O)NC[C@H]1CN(c2ccc(-c3ccc(N4CCN(C(=O)CO)C=N4)nc3)c(F)c2)C(=O)O1 [Compound 54]
Moraxella catarrhalis; Moraxella catarrhalis
  MIC90: 1 µg/mL (≈ 2.13 µM)
[1]; Enterococcus faecium
  MIC90: 0.063 µg/mL (≈ 0.134 µM)
Staphylococcus aureus; Staphylococcus aureus
  MIC90: 0.25 µg/mL (≈ 0.531 µM)
[2]; Staphylococcus epidermidis
  MIC90: 0.5 µg/mL (≈ 1.06 µM)
Enterococcus faecium; Enterococcus faecium
  MIC90: 0.25 µg/mL (≈ 0.531 µM)
[3]; Staphylococcus epidermidis
  MIC90: 0.125 µg/mL (≈ 0.266 µM)
[4]; Enterococcus faecalis
  MIC90: 0.5 µg/mL (≈ 1.06 µM)
[4]; Enterococcus faecalis and Enterococcus faecium which are resistant to linezolid
  antibacterial activity against linezolid-resistant bacteria (in words): very high antibacterial activity
[5]; Staphylococcus aureus
  MIC90: 0.5 µg/mL (≈ 1.06 µM)
[6]; Enterococcus faecalis
  MIC90: 0.063 µg/mL (≈ 0.134 µM)
[7]; Enterococcus faecium
  MIC90: 0.5 µg/mL (≈ 1.06 µM)
Enterococcus faecalis; Enterococcus faecalis
  MIC90: 0.063 µg/mL (≈ 0.134 µM)
[8]; Enterococcus faecium
  MIC90: 0.5 µg/mL (≈ 1.06 µM)

## CC(=O)NC[C@H]1CN(c2ccc(-c3ccc(N4C=NN(CC(=O)O)CC4)nc3)c(F)c2)C(=O)O1 [Compound 10]
[1]; Enterococcus faecium
  MIC90: 2 µg/mL (≈ 4.25 µM)
Staphylococcus aureus; Staphylococcus aureus
  MIC90: 1 µg/mL (≈ 2.13 µM)
[2]; Staphylococcus epidermidis
  MIC90: 2 µg/mL (≈ 4.25 µM)
Enterococcus faecium; Enterococcus faecium
  MIC90: 1 µg/mL (≈ 2.13 µM)
[3]; Staphylococcus epidermidis
  MIC90: 1 µg/mL (≈ 2.13 µM)
[4]; Enterococcus faecalis
  MIC90: 8 µg/mL (≈ 17 µM)
[5]; Staphylococcus aureus
  MIC90: 2 µg/mL (≈ 4.25 µM)
[6]; Enterococcus faecalis
  MIC90: 2 µg/mL (≈ 4.25 µM)
[7]; Enterococcus faecium
  MIC90: 8 µg/mL (≈ 17 µM)
Enterococcus faecalis; Enterococcus faecalis
  MIC90: 1 µg/mL (≈ 2.13 µM)
[8]; Enterococcus faecium
  MIC90: 8 µg/mL (≈ 17 µM)
